From US5672710A, “Sulfides, sulfoxides and sulfones disubstituted with a tetrahydronaphthalenyl, chromanyl, thiochromanyl or tetrahydroquinolinyl and substituted phenyl or heteroaryl group, having retinoid-like biological activity” (priority 1995, dated 1997)

Key:
RARγ = target: T1, RARγ (Homo sapiens, UniProt P13631); assay: Holoreceptor transactivation assay, RARγ; type: cell-based; conditions: CV-1; CV1 cells; relative to all trans retinoic acid; read-out: Transactivation Assay Efficacy (% of RA activity), RARγ
T1 construct: expressed in transfected cells; host or cells: CV1
T1 sequence (P13631 1-454): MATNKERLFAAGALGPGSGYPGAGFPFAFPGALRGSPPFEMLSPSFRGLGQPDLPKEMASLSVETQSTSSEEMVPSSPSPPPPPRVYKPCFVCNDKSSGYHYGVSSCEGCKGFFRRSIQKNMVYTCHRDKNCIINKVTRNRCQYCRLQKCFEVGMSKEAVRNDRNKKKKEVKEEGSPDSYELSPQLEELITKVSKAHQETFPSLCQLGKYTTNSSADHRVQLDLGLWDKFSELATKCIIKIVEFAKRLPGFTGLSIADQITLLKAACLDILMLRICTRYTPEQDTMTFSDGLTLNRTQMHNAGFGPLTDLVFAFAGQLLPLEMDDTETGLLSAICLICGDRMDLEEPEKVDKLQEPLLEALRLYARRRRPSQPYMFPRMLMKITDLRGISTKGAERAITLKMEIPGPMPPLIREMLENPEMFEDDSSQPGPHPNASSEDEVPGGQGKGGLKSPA
Description: (§1) A holoreceptor transactivation assay and a ligand binding assay which measure the ability of the compounds of the invention to bind to the several retinoid receptor subtypes, respectively, are described in published PCT Application No. WO W093/11755 (particularly on pages 30-33 and 37-41) published on Jun. 24, 1993, the specification of which is also incorporated herein by reference. A description of the holoreceptor transactivation assay is also provided below.
(§2) CV1 cells (5,000 cells/well) were transfected with an RAR reporter plasmid MTV-TREp-LUC (50 ng) along with one of the […] expression vectors (10 ng) in an automated 96-well format by the calcium phosphate procedure of Heyman et al. Cell 68, 397-406. (8). For RXRα and RXR.GAMMA. transactivation assays, an RXR-responsive reporter plasmid CRBPII-tk-LUC (50 ng) along with the appropriate RXRexpression vectors (10 ng) was used substantially as described by Heyman et al. above, and Allegretto et al. J. Biol. Chem. 268, 26625-26633. For RXRβ transactivation assays, an RXR-responsive reporter plasmid CPRE-tk-LUC ([…]) along with RXRβ expression vector ([…]) was used as described in above. These reporters contain DRI elements from human CRBPII and certain DRI elements from promoter, respectively. (see Mangelsdorf et al. The Retinoids: Biology, Chemistry and Medicine, pp 319-349, Raven Press Ltd., New York and Heyman et al., cited above) (1, 8). A β-galactosidase (50 ng) expression vector was used as an internal control in the transfections to normalize for variations in transfection efficiency. The cells were transfected in triplicate for 6 hours, followed by incubation with retinoids for 36 hours, and the extracts were assayed for luciferase and β-galactosidase activities. The detailed experimental procedure for holoreceptor transactivations has been described in Heyman et al. above, and Allegretto et al. cited above. The results obtained in this assay in connection with examplary compounds in accordance with the present invention are expressed in EC50 numbers, as they are also in the chimeric receptor transactivation assay. The Heyman et al. Cell 68, 397-406, Allegretto et al. J. Biol. Chem. 268, 26625-26633, and Mangelsdorf et al. The Retinoids: Biology, Chemistry and Medicine, pp 319-349, Raven Press Ltd., New York, are expressly incorporated herein by reference. The results of ligand binding assay are expressed in Kd numbers. (See Cheng et al. Biochemical Pharmacology Vol. 22 pp 3099-3108, expressly incorporated herein by reference.)

RARβ = target: T2, RARβ (Homo sapiens, UniProt P10826); assay: Ligand binding assay, RARβ
T2 construct: expressed in transfected cells; host or cells: CV1
T2 sequence (P10826 1-448 isoform P10826-2): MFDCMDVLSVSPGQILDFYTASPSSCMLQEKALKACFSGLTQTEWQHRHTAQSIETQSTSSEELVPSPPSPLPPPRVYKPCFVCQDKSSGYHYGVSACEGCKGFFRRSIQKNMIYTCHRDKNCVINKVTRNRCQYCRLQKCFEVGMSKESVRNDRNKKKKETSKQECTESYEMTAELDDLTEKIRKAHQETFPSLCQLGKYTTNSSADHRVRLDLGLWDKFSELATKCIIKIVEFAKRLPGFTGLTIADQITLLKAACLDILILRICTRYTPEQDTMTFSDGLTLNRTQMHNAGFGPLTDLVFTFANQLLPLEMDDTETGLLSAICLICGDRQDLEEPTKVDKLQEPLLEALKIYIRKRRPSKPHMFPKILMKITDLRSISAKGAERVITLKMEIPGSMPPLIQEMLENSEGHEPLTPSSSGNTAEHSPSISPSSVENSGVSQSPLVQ
Description: as §1, §2

RXRβ = target: T3, RXRβ (Mus musculus, UniProt P28704); assay: Ligand binding assay, RXRβ
T3 construct: expressed in transfected cells; host or cells: CV1
T3 sequence (P28704 1-520): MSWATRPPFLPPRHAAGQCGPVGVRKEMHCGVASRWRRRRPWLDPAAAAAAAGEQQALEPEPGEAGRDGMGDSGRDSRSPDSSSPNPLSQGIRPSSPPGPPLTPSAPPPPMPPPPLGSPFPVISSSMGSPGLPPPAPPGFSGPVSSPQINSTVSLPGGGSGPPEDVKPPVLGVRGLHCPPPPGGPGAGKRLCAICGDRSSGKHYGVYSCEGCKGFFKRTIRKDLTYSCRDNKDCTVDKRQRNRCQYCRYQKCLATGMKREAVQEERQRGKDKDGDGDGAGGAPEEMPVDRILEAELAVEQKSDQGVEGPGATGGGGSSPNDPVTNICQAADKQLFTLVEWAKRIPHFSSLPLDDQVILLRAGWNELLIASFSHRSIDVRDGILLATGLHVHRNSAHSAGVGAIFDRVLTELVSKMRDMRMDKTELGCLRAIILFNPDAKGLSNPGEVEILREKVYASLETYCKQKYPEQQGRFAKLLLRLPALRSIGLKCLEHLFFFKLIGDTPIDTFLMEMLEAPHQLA
Description: as §1, §2

| Structure (SMILES) | Emax (RARγ) [%] | Kd (RARβ) [µM] | Kd (RXRβ) [µM] |
| --- | --- | --- | --- |
| Cc1cc2c(cc1Sc1ncc(C(=O)O)s1)C(C)(C)CCC2(C)C [Compound 15, 2-(5,6,7,8-Tetrahydro-3,5,5,8,8-pentamethyl-2-naphthylthio)-5-thiazolecarboxylic acid] | 7 | > 1 | > 1 |
| Cc1cc2c(cc1Sc1ccc(C(=O)O)cc1)C(C)(C)CCC2(C)C [Compound 7, 4-(5,6,7,8-tetrahydro-3,5,5,8,8-pentamethyl-2-Daphthylthio)benzoic acid] | 11 | > 1 | 0.302 |
| CC1(C)CCC(C)(C)c2cc(Sc3ccc(C(=O)O)cc3)ccc21 [Compound 2] | 37 | > 1 | > 1 |
| Cc1cc2c(cc1[S+]([O-])c1ccc(C(=O)O)cc1)C(C)(C)CCC2(C)C (centres unmarked) [Compound 9, 4-(5,6,7,8-tetrahydro-3,5,5,8,8-pentamethyl-2-naphthylsulfoxy)benzoic acid] | 3 | > 1 | > 1 |
| Cc1cc2c(cc1S(=O)(=O)c1ccc(C(=O)O)cc1)C(C)(C)CCC2(C)C [Compound 11, 4-(5,6,7,8-tetrahydro-3,5,5,8,8-pentamethyl-2-naphthylsulfonyl)benzoic acid] | 0 | > 1 | – |
| Cc1cc2c(cc1Sc1ccc(C(=O)O)cn1)C(C)(C)CCC2(C)C [Compound 13] | 0 | > 10 | 0.057 |
| CC1(C)CCC(C)(C)c2cc(S(=O)(=O)c3ccc(C(=O)O)cc3)ccc21 [Compound 5, 4-(5,6,7,8-tetrahydro-5,5,8,8-tetramethyl-2-naphthylsulfonyl)benzoic acid] | 0 | > 1 | > 1 |
